Assay results from ChEMBL document CHEMBL1123891, “Antimalarial activity of 2-(substituted amino)-4,6-bis(trichloromethyl)-1,3,5-triazines and N-(chlorophenyl)-N'-[4-(substituted amino)-6-(trichloromethyl)-1,3,5-triazin-2-yl]guanidines” (1987).
Several values for one entry are separate records, joined by “and”; a condition that tells them apart may be missing. Equal values may be shown once.

Legend:
Mus musculus [1] = species: Mus musculus; assay: Dose required for 90% suppression of the parasitaemia in Plasmodium berghei treated mice (Mus musculus) relative to control was determined; format: functional
Mus musculus [2] = assay: Mean survival time was determined against Plasmodium berghei treated mice (Mus musculus) after (subcutaneous) administration of 640 mg/kg; format: functional; set-up: unit not given beside the values
Gallus gallus [3] = assay: Mean survival time was determined against Plasmodium gallinaceum treated chicks after (subcutaneously) administration of 100 mg/kg; format: functional; conditions: route subcutaneous
Mus musculus [4] = assay: Mean survival time was determined against Plasmodium berghei treated mice (Mus musculus) after (subcutaneously) administration of 160 mg/kg; format: functional; set-up: unit not given beside the values; conditions: route subcutaneous
Mus musculus [5] = assay: (§1) Mean survival time was determined against Plasmodium berghei treated mice (Mus musculus) after (subcutaneously) administration of 40 mg/kg; format: functional; conditions: route subcutaneous
Gallus gallus [6] = assay: Mean survival time was determined against Plasmodium gallinaceum treated chicks after (subcutaneous) administration of 120 mg/kg; format: functional
Mus musculus [7] = assay: (§2) Mean survival time was determined against Plasmodium berghei treated mice (Mus musculus) after (subcutaneously) administration of 20 mg/kg; format: functional; set-up: unit not given beside the values; conditions: route subcutaneous
Mus musculus [8] = assay: Mean survival time was determined against Plasmodium berghei treated mice (Mus musculus) after (subcutaneous) administration of 320 mg/kg; format: functional
Mus musculus [9] = assay: (§3) Mean survival time was determined against Plasmodium berghei treated mice (Mus musculus) after (subcutaneously) administration of 80 mg/kg; format: functional; set-up: unit not given beside the values; conditions: route subcutaneous
Mus musculus [10] = assay: as §1; format: functional; set-up: unit not given beside the values; conditions: route subcutaneous
Mus musculus [11] = assay: Mean survival time was determined against Plasmodium berghei treated mice (Mus musculus) after (subcutaneous) administration of 160 mg/kg; format: functional; set-up: unit not given beside the values
Mus musculus [12] = assay: as §3; format: functional; conditions: route subcutaneous
Gallus gallus [13] = assay: Mean survival time was determined against Plasmodium gallinaceum treated chicks after (subcutaneously) administration of 60 mg/kg; format: functional; conditions: route subcutaneous
Gallus gallus [14] = assay: Mean survival time was determined against Plasmodium gallinaceum treated chicks after (subcutaneously) administration of 120 mg/kg; format: functional; conditions: route subcutaneous
Mus musculus [15] = assay: as §2; format: functional; conditions: route subcutaneous
Mus musculus [16] = assay: (§4) Mean survival time was determined against Plasmodium berghei treated mice (Mus musculus) after (subcutaneously) administration of 320 mg/kg; format: functional; set-up: unit not given beside the values; conditions: route subcutaneous
Gallus gallus [17] = assay: Mean survival time was determined against Plasmodium gallinaceum treated chicks after (subcutaneously) administration of 240 mg/kg; format: functional; conditions: route subcutaneous
Gallus gallus [18] = assay: Mean survival time was determined against Plasmodium gallinaceum treated chicks after (subcutaneous) administration of 240 mg/kg; format: functional
Mus musculus [19] = assay: Mean survival time was determined against Plasmodium berghei treated mice (Mus musculus) after (subcutaneously) administration of 640 mg/kg; format: functional; conditions: route subcutaneous
Mus musculus [20] = assay: as §4; format: functional; conditions: route subcutaneous
Mus musculus [21] = assay: Mean survival time was determined against Plasmodium berghei treated mice (Mus musculus) after (subcutaneous) administration of 20 mg/kg

Row | Structure (SMILES) | SD90 (Mus musculus [1]) | Delta MST (Mus musculus [4]; 160 mg/kg) | Delta MST (Mus musculus [5]; 40 mg/kg) | Delta MST (Mus musculus [7]) | Delta MST (Mus musculus [8]) | Delta MST (Mus musculus [9]) | Delta MST (Mus musculus [2]) | Delta MST (Mus musculus [10]) | Delta MST (Mus musculus [11]; 160 mg/kg) | Delta MST (Mus musculus [12]) | Delta MST (Mus musculus [15]) | Delta MST (Mus musculus [4]) | Delta MST (Mus musculus [16]) | Delta MST (Gallus gallus [17]) | also measured
1 | CN(C)CCCNc1nc(/N=C(\N)Nc2ccc(Cl)c(Cl)c2)nc(C(Cl)(Cl)Cl)n1 | 100 mg/kg | 12.3 and 12.6 | 1.3 and 1.6 | – | – | – | – | – | – | – | – | – | – | – | Delta MST (Mus musculus [2]; 640 mg/kg): 15.5 and 14.9; Delta MST (Gallus gallus [3]): 0.2
2 | N=C(Nc1ccc(Cl)cc1)Nc1nc(NCCCN2CCCCC2)nc(C(Cl)(Cl)Cl)n1 | 208 mg/kg | – | – | 0.3 | 5.5 | 2.7 | 7.9 and 8.1 | 1.7 and 1.5 | 3.1 and 3.9 | – | – | – | – | – | Delta MST (Gallus gallus [6]): 9.1
3 | ClC(Cl)(Cl)c1nc(NCCCCCN2CCCC2)nc(C(Cl)(Cl)Cl)n1 | 34 mg/kg | – | 0.4 and 0.5 | – | – | – | – | – | – | 0.4 | 0 | 2.3 | 8.6 | – | Delta MST (Gallus gallus [13]): 1.2; Delta MST (Gallus gallus [14]): 4.6; Delta MST (Mus musculus [11]): 3
4 | N=C(Nc1ccc(Cl)cc1)Nc1nc(NCCCCCN2CCCC2)nc(C(Cl)(Cl)Cl)n1 | 145 mg/kg | – | – | 0.6 | 4 | 2.2 | 7.2 and 7 | 1 and 1.2 | 3.8 and 4.2 | – | – | – | – | – | Delta MST (Gallus gallus [6]): 0.7
5 | CCN1CCCC(Nc2nc(/N=C(\N)Nc3ccc(Cl)cc3)nc(C(Cl)(Cl)Cl)n2)C1 (configuration not stated) | 97 mg/kg | 4.7 and 2.3 | 0.7 and 1.1 | – | – | – | – | – | – | 4.1 | 0.3 | – | 5.3 | – | Delta MST (Mus musculus [2]; 640 mg/kg): 10.3 and 9.9
6 | CCN1CCCC(Nc2nc(C(Cl)(Cl)Cl)nc(C(Cl)(Cl)Cl)n2)C1 (configuration not stated) | 91 mg/kg | – | – | – | – | – | – | – | – | – | – | 2.8 | – | 1.6 | Delta MST (Mus musculus [5]): 0.2
7 | N=C(Nc1ccc(Cl)cc1)Nc1nc(NCCCN2CCCCCC2)nc(C(Cl)(Cl)Cl)n1 | 240 mg/kg | – | – | 0.7 | 4.5 | 1.7 | 7.5 and 4.7 | 1.1 and 0.7 | 2.7 and 1.5 | – | – | – | – | – | Delta MST (Gallus gallus [18]): 7.2; Delta MST (Gallus gallus [3]): 18.7
8 | N=C(Nc1ccc(Cl)cc1)Nc1nc(NCCCCN2CCCC2)nc(C(Cl)(Cl)Cl)n1 | 108 mg/kg | – | – | 0.2 | 4.8 | 2.2 | 5.8 and 5.3 | 0.4 and 1 | 3.8 and 4.8 | – | – | – | – | – | –
9 | ClC(Cl)(Cl)c1nc(NCCCCN2CCCC2)nc(C(Cl)(Cl)Cl)n1 | 80 mg/kg | – | 0.2 and 0.3 | – | – | – | – | – | – | 0.4 | 0.2 | 2.8 | 4.2 | – | Delta MST (Gallus gallus [13]): 0.1; Delta MST (Mus musculus [11]): 2.1
10 | ClC(Cl)(Cl)c1nc(NCCCN2CCCC2)nc(C(Cl)(Cl)Cl)n1 | 86 mg/kg | – | – | – | – | – | 3.8 | – | – | 0.2 | 0 | 1 | 1.6 | 0.3 | Delta MST (Mus musculus [5]): 0
11 | N=C(Nc1ccc(Cl)cc1)Nc1nc(NCCCN2CCCC2)nc(C(Cl)(Cl)Cl)n1 | 235 mg/kg | 3.7 and 2.3 | – | – | – | – | – | – | – | 1.9 | 0.5 | – | – | 14.4 | Delta MST (Gallus gallus [14]): 11.7; Delta MST (Mus musculus [19]): 10.1 and 9.9; Delta MST (Mus musculus [20]): 7.5; Delta MST (Mus musculus [5]): 0.5
12 | CN(C)CCCNc1nc(/N=C(\N)Nc2ccc(Cl)cc2)nc(C(Cl)(Cl)Cl)n1 | – | – | – | – | – | – | – | 4.2 and 4.6 | 5.4 and 6.5 | – | – | – | – | – | –
13 | CN(C)CCCNc1nc(C(Cl)(Cl)Cl)nc(C(Cl)(Cl)Cl)n1 | 125 mg/kg | 4 and 4.7 | 2 and 2.1 | – | – | – | – | – | – | 2.2 | – | – | 6.8 | 0.3 | Delta MST (Mus musculus [2]; 640 mg/kg): 16.3 and 17.7; Delta MST (Mus musculus [21]): 1.2
